Tested on: human myeloma cells (U266, MM1, KMS1, and APR1)
Experiment: MTT cell survival of IL-6 or TNFα stimulated myeloma cells
Format: cell-based
Conditions: U-266, with constant TBL-12 100 ug/ml, read-out: IC50 for Velcade, in combination with the TBL-12
Protocol: Different human myeloma cells (U266, MM1, KMS1, and APR1), which are commercially available were cultured in standard 96 well plates using standard methods to exponential growth face. The cells were stimulated by either 1L-6 (5 ng/ml), or TNFα (5 ng/ml).
The cells were then contacted with a combination of a constant concentration of TBL-12 (100 ug/ml), either by itself, or with various concentration of Velcade (2.5, 5, 10, and 15 ng). Cells which received neither TBL-12 nor Velcade were used as a control. Cell survival was measured, using an MTT assay, at 24, 48, and 72 hours.

CC(C)C[C@H](NC(=O)[C@H](Cc1ccccc1)NC(=O)c1cnccn1)B(O)O [Velcade, Bortezomib]
IC50: ~5 ng/mL

Reference: patent US20140161897A1, “METHOD FOR TREATING CANCERS, SUCH AS MYELOMA AND BREAST CANCER, WITH A COMBINATION OF TBL-12 AND VELCADE” (priority 2012, published 2014)
